Measurements published in patent US20160137746A1, “METHODS FOR TREATING HIGH CARDIOVASCULAR RISK PATIENTS WITH HYPERCHOLESTEROLEMIA” (Sanofi Biotechnology, priority 2014, published 2016).
Values joined by “and” are separate entries in the source; they are usually repeats but may differ in a detail not shown here. Equal entries are not always repeated.

Tested on: high cardiovascular risk patients with hypercholesterolemia
Assay: ODYSSEY LONG TERM: lipid efficacy of alirocumab 150 mg Q2W vs placebo
Assay type: in vivo, human
Details: for Percent change from baseline in calculated LDL-C at week 24 (%), LS means (SE) / Percent change from baseline in calculated LDL-C at week 24, LS mean difference (SE) vs placebo / Calculated LDL-C percent change from baseline, LS mean (SE): ITT population; for Percent change from baseline in calculated LDL-C at week 24 (%), LS means (SE) / Percent change from baseline in calculated LDL-C at week 24, LS mean difference (SE) vs placebo: 150 Q2W; for Calculated LDL-C percent change from baseline, LS mean (SE): MMRM, alirocumab 150 Q2W
Experimental: Patients were stratified according to heFH population, prior history of MI or ischemic stroke, statin treatment and geographic region. Patients at high cardiovascular risk were defined as 1) having heFH (who may or may not have CHD/CHD risk equivalents) or 2) no prior diagnosis of heFH but having hypercholesterolemia together with established CHD or CHD risk equivalents.
Primary analyses of efficacy endpoints were conducted using an ITT approach (based on the ITT population defined above), including all lipid data, regardless of whether the patient was continuing therapy or not. This corresponds to ITT estimands, defined for primary and key secondary endpoints. In addition, analyses were also conducted using an on-treatment approach (based on the mITT population defined above), including lipid data collected during the efficacy treatment period. This corresponds to on-treatment estimands of key secondary endpoints.
With regards to the primary efficacy analysis (ITT approach), the percent change in calculated LDL-C from baseline to Week 24 was analyzed using a mixed-effect model with repeated measures (MMRM) approach. All post-baseline data available from Week 4 to Week 52 analysis windows were used and missing data were accounted for by the MMRM. […] This model provided baseline adjusted least-squares means (LSmeans) estimates at Week 24 for both treatment groups with their corresponding SEs and 95% confidence intervals.
Continuous secondary variables anticipated to have a normal distribution (i.e., lipids other than TGs and Lp(a)) were analyzed using the same MMRM model as for the primary endpoint. […] Combined estimate for mean in both treatment groups, as well as the differences of these estimates, with their corresponding SEs, 95% Cls and p-value were provided (through SAS MIANALYZE procedure).
Binary secondary efficacy endpoints were analyzed using multiple imputation approach for handling of missing values followed by stratified logistic regression with treatment group as main effect and corresponding baseline value(s) as covariate, stratified by randomization factors (as per IVRS). Combined estimates of odds ratio versus placebo, 95% CI, and p-value were provided (through SAS MIANALYZE procedure).

[1] = On-treatment analysis, 150 Q2W (N = 1523)
[2] = On-treatment analysis, 150 Q2W (N = 1523), combined estimate for adjusted mean (SE)
[3] = Pattern Mixture Model sensitivity analysis, 150 Q2W (N = 1523)
[4] = Week 24, free PCSK9 levels at or above the median
[5] = Week 24, free PCSK9 levels below the median

Alirocumab: human anti-PCSK9 antibody; HCVR SEQ ID NO:1, LCVR SEQ ID NO:6; CDRs SEQ ID NOs 2/3/4/7/8/10
Percent change from baseline in calculated LDL-C at week 24 (%), LS means (SE) (HeFH population (271 patients)): −56.3 (1.9) %
Percent change from baseline in calculated LDL-C at week 24, LS mean difference (SE) vs placebo (HeFH population): −63.2 (2.9) %
Calculated LDL-C percent change, LS mean difference vs placebo (ITT, Week 24): −61.9%
Calculated LDL-C, LS mean percent change from baseline (ITT, Week 24): −61.0%
Measured LDL-C, LS mean percent change from baseline (ITT, Week 24): −61.3%
Very high CV risk or high CV risk patients who reached calculated LDL-C <70 mg/dL or <100 mg/dL, respectively (ITT, Week 24): 80.7%
Proportion of patients reaching calculated LDL-C <70 mg/dL (ITT, Week 24, listed as alirocumab): 79.3% and 79%
Percent change from baseline in calculated LDL-C at week 24 (%), LS means (SE) (Non-HeFH population (1259 patients)): −62.1 (0.8) %
Percent change from baseline in calculated LDL-C at week 24, LS mean difference (SE) vs placebo (Non-HeFH population): −61.5 (1.4) %
Apo A1, LS mean (SE) change from baseline to Week 24 (%) [1]: 4.2 (0.4) %
Apo A1, LS mean difference (SE) vs placebo, percent change from baseline at Week 24 [1]: 2.9 (0.7) %
Apo B, LS mean (SE) change from baseline to Week 24 (%) [1]: −54.3 (0.7) %
Apo B, LS mean difference (SE) vs placebo, percent change from baseline at Week 24 [1]: −55.5 (1.2) %
Calculated LDL-C, LS mean (SE) change from baseline to Week 24 (%) [1]: −62.8 (0.7) %
Calculated LDL-C, LS mean difference (SE) vs placebo, percent change from baseline at Week 24 [1]: −63.5 (1.2) %
HDL-C, LS mean (SE) change from baseline to Week 24 (%) [1]: 4.2 (0.4) %
HDL-C, LS mean difference (SE) vs placebo, percent change from baseline at Week 24 [1]: 4.9 (0.7) %
Non-HDL-C, LS mean (SE) change from baseline to Week 24 (%) [1]: −53.1 (0.6) %
Non-HDL-C, LS mean difference (SE) vs placebo, percent change from baseline at Week 24 [1]: −53.7 (1.0) %
Total cholesterol, LS mean (SE) change from baseline to Week 24 (%) [1]: −38.8 (0.5) %
Total cholesterol, LS mean difference (SE) vs placebo, percent change from baseline at Week 24 [1]: −38.4 (0.8) %
Lipoprotein (a), LS mean difference (SE) vs placebo, percent change from baseline at Week 24 [2]: −26.3 (1.3) %
Lipoprotein (a), change from baseline to Week 24 (%) [2]: −30.2 (0.7) %
Triglycerides, LS mean difference (SE) vs placebo, percent change from baseline at Week 24 [2]: −17.2 (1.4) %
Triglycerides, change from baseline to Week 24 (%) [2]: −15.8 (0.8) %
Calculated LDL-C percent change, LS mean difference vs placebo (On-treatment, Week 24): −63.5%
Proportion of patients reaching calculated LDL-C <70 mg/dL (On-treatment, Week 24): 81.2%
Very high CV risk or high CV risk patients who reached calculated LDL-C <70 mg/dL or <100 mg/dL, respectively (On-treatment, Week 24): 82.8%
Calculated LDL-C, LS mean (SE) change from baseline to Week 24 (%) [3]: −57.8 (0.8) %
Calculated LDL-C, LS mean difference (SE) vs placebo, percent change from baseline at Week 24 [3]: −58.5 (1.3) %
Calculated LDL-C percent change from baseline, LS mean (SE) (Week 4): −64.8%
Calculated LDL-C percent change from baseline, LS mean (SE) (Week 8): −65.8%
Apo-B - Percent change from baseline to Week 12, LS mean difference vs. placebo (Week 12, ITT): placebo of −56%
Apolipoprotein A1 - Percent change from baseline to Week 12, LS mean difference vs. placebo (Week 12, ITT): placebo of 4%
Calculated LDL-C - Percent change from baseline to Week 12, LS mean difference vs. placebo (Week 12, ITT): placebo of −64.8%
Fasting TGs - Percent change from baseline to Week 12, combined estimate for adjusted mean difference vs. placebo (Week 12, ITT): vs. placebo of −17.9%
HDL-C - Percent change from baseline to Week 12, LS mean difference vs. placebo (Week 12, ITT): placebo of 5.6%
Lp(a) - Percent change from baseline to Week 12, combined estimate for adjusted mean difference vs. placebo (Week 12, ITT): vs. placebo of −25.1%
Non-HDL-C - Percent change from baseline to Week 12, LS mean difference vs. placebo (Week 12, ITT): placebo of −54.6%
Total-C - Percent change from baseline to Week 12, LS mean difference vs. placebo (Week 12, ITT): placebo of −39%
Calculated LDL-C percent change from baseline, LS mean (SE) (Week 12): −63.3%
Calculated LDL-C - Percent change from baseline to Week 12, LS mean difference vs. placebo (Week 12, On-treatment): placebo of −65.5%
Calculated LDL-C percent change from baseline, LS mean (SE) (Week 16): −64.5%
Calculated LDL-C percent change, LS mean difference vs placebo [4]: −66.0%
Calculated LDL-C, LS mean percent change from baseline [4]: −62.7%
Calculated LDL-C percent change, LS mean difference vs placebo [5]: −58.0%
Calculated LDL-C, LS mean percent change from baseline [5]: −59.4%
Calculated LDL-C percent change, LS mean difference vs placebo (Week 24, men): −64.7%
Calculated LDL-C, LS mean percent change from baseline (Week 24, men): −65.5%
Calculated LDL-C percent change, treatment effect versus placebo (Week 24, patients with baseline LDL-C <100 mg/dL): −75.0%
